From PMC10888192, “New Derivatives of 1-(3-Methyl-1-Benzofuran-2-yl)Ethan-1-one: Synthesis and Preliminary Studies of Biological Activity” (International Journal of Molecular Sciences, 2024) come the findings set out here.

This assay relates to standard bacteria strains. Description: Antibacterial screening against standard strains (overall statements). Type of assay: cell-based. The note with it: concentrations 16 to 512 µg/mL. The method, then: All of the obtained derivatives (1–9) were tested in vitro against a number of bacteria, including representative standard Gram-positive and Gram-negative rods. Compounds were screened for their minimal inhibitory concentrations (MICs).
The antimicrobial studies for all of the obtained compounds were conducted using reference strains of bacteria derived from international microbe collections—the American Type Culture Collection (ATCC) and the National Collection of Type Culture (NCTC). Among the reference strains there were two Gram-negative rods (P. aeruginosa ATCC 15442 and E. coli ATCC 25922) and six Gram-positive isolates (Staphylococcus aureus: NCTC 4163, ATCC 25923, ATCC 6538, ATCC 29213, S. epidermidis ATCC 12228, ATCC 35984). These strains are widely used to determine the activity of antimicrobials and check the drug susceptibility of bacteria, and their use enables comparison of assay results obtained in independent laboratories all over the world.
The antimicrobial activity of compounds was expressed by minimum inhibitory concentration values (MICs), according to CLCI reference procedures with some modifications. MIC was tested by the two-fold serial microdilution method (in 96-well microtiter plates) on MH II liquid medium. The final inoculum of all of the studied bacteria was 10^6 CFU/mL (colony forming unit per mL). […]

As to `COc1cc(OC)c2c(CBr)c(C(C)=O)oc2c1` [Compound 6, 1-[3-(Bromomethyl)-4,6-Dimethoxy-1-Benzofuran-2-yl]Ethanone], the “Antimicrobial activity against the studied strains” value is given as “did not show antimicrobial properties against the studied strains”.
